Test results taken from ChEMBL document CHEMBL1944604, “Aminopurine based JNK inhibitors for the prevention of ischemia reperfusion injury” (Bioorg Med Chem Lett, 2012).
pIC50: −log10 of the molar value. In brackets after ≈: the same amount, converted by molar mass.

How the values were obtained:
[1] = Metabolic stability of the compound in rat liver microsomes assessed as compound remaining at 3 uM after 30 mins; assay type: ADME, Microsome; conditions: read-out: Stability
[2] = Metabolic stability of the compound in mouse liver microsomes assessed as compound remaining at 3 uM after 30 mins; assay type: ADME, Microsome; conditions: read-out: Stability
[3] = Metabolic stability of the compound in monkey liver microsomes assessed as compound remaining at 3 uM after 30 mins; assay type: ADME, Macaca mulatta, Microsome; conditions: rhesus monkey, read-out: Stability
[4] = Metabolic stability of the compound in human liver microsomes assessed as compound remaining at 3 uM after 30 mins; assay type: ADME, Microsome; conditions: read-out: Stability
[5] = Thermodynamic solubility of the compound at pH 5; assay type: physicochemical; conditions: buffer, read-out: Therm_solubility
[6] = molecular target: T1, c-Jun N-terminal kinase, JNK (Homo sapiens, UniProt P45983+P53779+P45984); assay: Inhibition of JNK-mediated cJun phosphorylation in human Jurkat T cells by Western blotting; assay type: cell-based
[7] = molecular target: Mitogen-activated protein kinase 9 (Homo sapiens, UniProt P45984); assay: Inhibition of full length Hexa-His-tagged JNK2 using GST-tagged cJun and [gamma33P]ATP as substrate after 60 mins by scintillation counting
[8] = molecular target: Mitogen-activated protein kinase 10 (Homo sapiens, UniProt P53779); assay: Inhibition of full length Hexa-His-tagged JNK3 using GST-tagged cJun and [gamma33P]ATP as substrate after 60 mins by scintillation counting
[9] = molecular target: T1, c-Jun N-terminal kinase, JNK; assay: Inhibition of JNK-mediated cJun phosphorylation in anisomysin-stimulated human Jurkat T cells pretreated for 30 mins before anisomysin stimulation measured after 10 mins by DELFIA assay; assay type: cell-based
[10] = Volume of distribution at steady state in rat at 2 to 10 mg/kg, iv; assay type: ADME, organism-based; design: dose 2-10 mg/kg, route intravenous; conditions: in vivo, read-out: Vdss
Rattus norvegicus [11] = assay: Antiinflammatory activity in po dosed CD rat whole blood assessed as inhibition of LPS-induced TNFalpha production administered 1 hr before LPS challenge measured by […]; assay type: functional, organism-based
Mus musculus [12] = assay: Hepatoprotective activity in BALB/c mouse assessed as inhibition of concanavalin A-induced ALT elevation at 30 mg/kg, ip administered 1 hr prior Con A challenge; assay type: functional; conditions: route intraperitoneal
Mus musculus [13] = assay: Hepatoprotective activity in BALB/c mouse assessed as inhibition of concanavalin A-induced ALT elevation at 60 mg/kg, ip administered 1 hr prior Con A challenge; assay type: functional; conditions: route intraperitoneal
[14] = AUC in rat at 2 to 10 mg/kg, iv bolus; assay type: ADME, organism-based; design: dose 2-10 mg/kg, route intravenous; conditions: plasma
[15] = Half life in rat at 2 to 10 mg/kg, iv bolus; assay type: ADME, organism-based; design: dose 2-10 mg/kg, route intravenous; conditions: in vivo
[16] = Clearance in rat at 10 mg/kg, iv infusion; assay type: ADME, organism-based; design: dose 10 mg/kg, route intravenous; conditions: in vivo
[17] = AUC in rat at 10 mg/kg, iv infusion; assay type: ADME, organism-based; design: dose 10 mg/kg, route intravenous; conditions: plasma
[18] = Half life in rat at 10 mg/kg, iv infusion; assay type: ADME, organism-based; design: dose 10 mg/kg, route intravenous; conditions: in vivo
[19] = Clearance in dog at 1 mg/kg, iv bolus; assay type: ADME, organism-based, Canis lupus familiaris; design: dose 1 mg/kg, route intravenous; conditions: in vivo
[20] = Half life in dog at 1 mg/kg, iv bolus; assay type: ADME, organism-based, Canis lupus familiaris; design: dose 1 mg/kg, route intravenous; conditions: in vivo
[21] = Clearance in cynomolgus monkey at 1 mg/kg, iv bolus; assay type: ADME, organism-based, Macaca fascicularis; design: dose 1 mg/kg, route intravenous; conditions: in vivo
[22] = Volume of distribution at steady state in cynomolgus monkey at 1 mg/kg, iv bolus; assay type: ADME, organism-based, Macaca fascicularis; design: dose 1 mg/kg, route intravenous; conditions: in vivo, read-out: Vdss
[23] = AUC in cynomolgus monkey at 1 mg/kg, iv bolus; assay type: ADME, organism-based, Macaca fascicularis; design: dose 1 mg/kg, route intravenous; conditions: plasma
[24] = Half life in cynomolgus monkey at 1 mg/kg, iv bolus; assay type: ADME, organism-based, Macaca fascicularis; design: dose 1 mg/kg, route intravenous; conditions: in vivo
[25] = Mean residence time in cynomolgus monkey at 1 mg/kg, iv bolus; assay type: ADME, organism-based, Macaca fascicularis; design: dose 1 mg/kg, route intravenous; conditions: in vivo
Cytochrome P450 1A2 = molecular target: T2, Cytochrome P450 1A2 (Homo sapiens, UniProt P05177); assay: Inhibition of recombinant CYP1A2 up to 30 uM; assay type: ADME; conditions: recombinant enzyme
T2 sequence (P05177 whole entry): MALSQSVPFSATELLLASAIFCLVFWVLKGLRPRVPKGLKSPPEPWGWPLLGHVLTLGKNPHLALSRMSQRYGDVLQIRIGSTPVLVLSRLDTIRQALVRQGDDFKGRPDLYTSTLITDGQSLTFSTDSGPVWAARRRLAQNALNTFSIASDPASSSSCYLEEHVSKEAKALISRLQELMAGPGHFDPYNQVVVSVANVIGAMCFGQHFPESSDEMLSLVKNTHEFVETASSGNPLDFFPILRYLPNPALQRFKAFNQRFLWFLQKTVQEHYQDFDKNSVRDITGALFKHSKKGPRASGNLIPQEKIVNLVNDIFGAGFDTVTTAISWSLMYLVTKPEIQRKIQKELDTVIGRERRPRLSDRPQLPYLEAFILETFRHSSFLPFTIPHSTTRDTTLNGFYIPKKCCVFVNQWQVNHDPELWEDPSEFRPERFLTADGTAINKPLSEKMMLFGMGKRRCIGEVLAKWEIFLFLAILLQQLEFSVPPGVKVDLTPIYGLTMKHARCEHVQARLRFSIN

Cytochrome P450 2C19 = Cytochrome P450 2C19 (Homo sapiens, UniProt P33261); assay: Inhibition of recombinant CYP2C19 up to 30 uM; assay type: ADME; conditions: recombinant enzyme
Cytochrome P450 2D6 = Cytochrome P450 2D6 (Homo sapiens, UniProt P10635); assay: Inhibition of recombinant CYP2D6 up to 30 uM; assay type: ADME; conditions: recombinant enzyme
Cytochrome P450 3A4 = Cytochrome P450 3A4 (Homo sapiens, UniProt P08684); assay: Inhibition of CYP3A4 in human liver microsomes up to 30 uM; assay type: ADME, Microsome
CYP2B6 = molecular target: T3, CYP2B6 (Homo sapiens, UniProt P20813); assay: Drug metabolism assessed as CYP2B6-mediated compound loss after 30 mins; assay type: ADME; conditions: recombinant enzyme; read-out: Drug metabolism
T3 sequence (P20813 whole entry): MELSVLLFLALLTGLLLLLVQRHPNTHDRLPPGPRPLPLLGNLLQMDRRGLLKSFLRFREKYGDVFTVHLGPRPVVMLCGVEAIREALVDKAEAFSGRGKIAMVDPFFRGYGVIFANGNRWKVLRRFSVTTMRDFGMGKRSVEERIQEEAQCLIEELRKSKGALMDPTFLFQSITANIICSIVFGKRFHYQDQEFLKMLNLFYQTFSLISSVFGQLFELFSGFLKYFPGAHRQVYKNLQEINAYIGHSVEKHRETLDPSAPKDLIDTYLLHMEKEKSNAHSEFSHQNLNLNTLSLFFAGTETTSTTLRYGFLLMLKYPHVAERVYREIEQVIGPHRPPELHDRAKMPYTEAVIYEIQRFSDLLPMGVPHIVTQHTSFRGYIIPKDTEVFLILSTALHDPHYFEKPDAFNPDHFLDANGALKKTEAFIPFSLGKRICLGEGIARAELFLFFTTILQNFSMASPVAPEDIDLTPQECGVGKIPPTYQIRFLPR

Hepatocyte [26] = assay: Drug metabolism in mouse hepatocytes after 60 mins; assay type: ADME, cell-based; conditions: 1 h
Hepatocyte [27] = assay: Drug metabolism in human hepatocytes after 60 mins; assay type: ADME, cell-based; conditions: 1 h
Plasma = assay: Drug metabolism in rat plasma at 2 mg/kg after 60 mins; assay type: ADME, organism-based; design: dose 2 mg/kg; conditions: in vivo, 1 h
Salmonella typhimurium = assay: Induction of mutagenesis in Salmonella Typhimurium by Ames test; assay type: toxicity, organism-based; conditions: salmonella enterica subsp. enterica serovar typhimurium
hERG (KCNH2) = hERG (KCNH2) (Homo sapiens, UniProt Q12809); assay: Inhibition of human ERG at 10 uM
Rattus norvegicus [28] = assay: Toxicity in rat non-anesthetized rat at 30 mg/kg, iv infusion administered 4 hrs for 4 consecutive days; assay type: organism-based; design: dose 30 mg/kg, route intravenous; conditions: in vivo

Sequence of hERG (KCNH2) (Q12809 whole entry, the tested form may be a part): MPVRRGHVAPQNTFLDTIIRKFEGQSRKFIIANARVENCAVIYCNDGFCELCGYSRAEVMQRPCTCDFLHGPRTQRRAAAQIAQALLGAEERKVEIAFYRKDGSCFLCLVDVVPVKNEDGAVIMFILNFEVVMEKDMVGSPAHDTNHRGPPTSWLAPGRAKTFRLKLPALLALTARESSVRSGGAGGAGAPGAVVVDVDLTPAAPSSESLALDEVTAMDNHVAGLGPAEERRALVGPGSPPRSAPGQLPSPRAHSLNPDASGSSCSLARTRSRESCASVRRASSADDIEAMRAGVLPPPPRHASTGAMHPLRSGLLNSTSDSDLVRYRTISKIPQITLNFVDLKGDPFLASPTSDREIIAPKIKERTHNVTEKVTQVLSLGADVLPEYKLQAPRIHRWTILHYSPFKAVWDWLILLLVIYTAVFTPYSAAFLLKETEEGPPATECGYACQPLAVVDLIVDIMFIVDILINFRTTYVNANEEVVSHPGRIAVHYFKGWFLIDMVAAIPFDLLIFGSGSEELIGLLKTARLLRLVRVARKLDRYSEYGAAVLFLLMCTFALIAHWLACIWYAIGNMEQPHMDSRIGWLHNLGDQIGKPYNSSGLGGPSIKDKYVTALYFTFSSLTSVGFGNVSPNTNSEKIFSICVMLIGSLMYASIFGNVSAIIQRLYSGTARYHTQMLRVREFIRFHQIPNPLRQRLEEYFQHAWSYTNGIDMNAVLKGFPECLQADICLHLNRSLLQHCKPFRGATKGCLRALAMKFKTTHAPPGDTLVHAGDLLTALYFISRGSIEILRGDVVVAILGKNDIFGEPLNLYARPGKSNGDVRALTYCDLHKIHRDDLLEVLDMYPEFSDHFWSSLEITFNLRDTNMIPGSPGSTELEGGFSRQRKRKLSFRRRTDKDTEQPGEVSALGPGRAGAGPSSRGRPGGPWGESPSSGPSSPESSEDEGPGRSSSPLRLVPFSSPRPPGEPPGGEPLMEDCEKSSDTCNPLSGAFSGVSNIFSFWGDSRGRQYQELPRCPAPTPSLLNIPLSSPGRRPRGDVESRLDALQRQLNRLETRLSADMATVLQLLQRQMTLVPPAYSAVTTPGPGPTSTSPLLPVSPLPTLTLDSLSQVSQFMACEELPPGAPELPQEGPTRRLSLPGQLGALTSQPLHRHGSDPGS
Sequence of Cytochrome P450 2D6 (P10635 whole entry): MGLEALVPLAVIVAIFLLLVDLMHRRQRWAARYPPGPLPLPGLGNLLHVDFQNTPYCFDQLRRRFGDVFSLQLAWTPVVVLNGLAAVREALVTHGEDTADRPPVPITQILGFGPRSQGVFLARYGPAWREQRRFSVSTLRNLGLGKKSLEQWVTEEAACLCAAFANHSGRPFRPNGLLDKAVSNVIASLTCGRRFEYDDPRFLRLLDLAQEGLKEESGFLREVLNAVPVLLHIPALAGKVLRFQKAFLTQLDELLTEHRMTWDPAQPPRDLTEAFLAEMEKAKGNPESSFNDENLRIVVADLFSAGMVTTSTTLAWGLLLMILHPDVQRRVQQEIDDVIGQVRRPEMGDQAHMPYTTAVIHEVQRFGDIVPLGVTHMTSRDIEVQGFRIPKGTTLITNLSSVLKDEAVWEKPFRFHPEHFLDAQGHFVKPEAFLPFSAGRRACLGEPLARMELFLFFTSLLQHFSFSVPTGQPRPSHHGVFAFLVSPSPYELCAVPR
Sequence of Mitogen-activated protein kinase 9 (P45984 whole entry): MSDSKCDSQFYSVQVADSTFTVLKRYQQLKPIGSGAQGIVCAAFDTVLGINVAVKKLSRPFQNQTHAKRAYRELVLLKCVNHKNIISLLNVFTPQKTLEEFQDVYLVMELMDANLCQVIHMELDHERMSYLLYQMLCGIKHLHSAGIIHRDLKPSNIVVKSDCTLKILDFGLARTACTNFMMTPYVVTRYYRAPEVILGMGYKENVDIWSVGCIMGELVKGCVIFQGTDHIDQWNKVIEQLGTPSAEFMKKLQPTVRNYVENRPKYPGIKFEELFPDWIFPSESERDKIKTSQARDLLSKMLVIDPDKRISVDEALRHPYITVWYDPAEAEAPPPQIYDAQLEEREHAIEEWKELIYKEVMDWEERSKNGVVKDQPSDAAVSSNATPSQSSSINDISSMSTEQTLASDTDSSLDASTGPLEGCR
Sequence of Cytochrome P450 3A4 (P08684 whole entry): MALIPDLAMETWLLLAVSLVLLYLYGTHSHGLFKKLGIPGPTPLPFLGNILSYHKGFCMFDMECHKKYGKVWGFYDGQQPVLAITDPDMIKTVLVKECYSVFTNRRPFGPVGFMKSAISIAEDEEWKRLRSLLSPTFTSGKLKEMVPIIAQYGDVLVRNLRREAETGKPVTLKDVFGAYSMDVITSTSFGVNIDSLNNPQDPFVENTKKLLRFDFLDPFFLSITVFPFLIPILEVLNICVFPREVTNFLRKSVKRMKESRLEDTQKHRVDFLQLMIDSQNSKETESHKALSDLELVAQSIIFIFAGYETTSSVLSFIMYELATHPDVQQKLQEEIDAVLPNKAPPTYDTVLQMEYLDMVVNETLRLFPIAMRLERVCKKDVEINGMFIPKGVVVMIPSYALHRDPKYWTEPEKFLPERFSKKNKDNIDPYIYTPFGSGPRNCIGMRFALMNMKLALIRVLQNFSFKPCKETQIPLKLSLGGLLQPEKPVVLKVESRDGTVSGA
Sequence of Mitogen-activated protein kinase 10 (P53779 whole entry): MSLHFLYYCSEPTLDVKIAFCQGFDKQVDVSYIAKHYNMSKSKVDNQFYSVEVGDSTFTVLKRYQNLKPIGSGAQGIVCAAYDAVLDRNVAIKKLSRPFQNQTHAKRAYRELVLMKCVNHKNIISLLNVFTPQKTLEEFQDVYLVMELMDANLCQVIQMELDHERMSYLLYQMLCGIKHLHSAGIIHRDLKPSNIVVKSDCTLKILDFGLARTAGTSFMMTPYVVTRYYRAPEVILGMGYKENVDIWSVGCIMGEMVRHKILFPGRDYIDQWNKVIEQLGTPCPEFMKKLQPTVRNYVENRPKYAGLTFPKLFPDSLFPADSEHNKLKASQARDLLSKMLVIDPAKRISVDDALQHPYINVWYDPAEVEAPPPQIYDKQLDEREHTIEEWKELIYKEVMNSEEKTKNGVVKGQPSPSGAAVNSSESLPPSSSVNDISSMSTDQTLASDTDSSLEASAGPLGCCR
Sequence of Cytochrome P450 2C19 (P33261 whole entry): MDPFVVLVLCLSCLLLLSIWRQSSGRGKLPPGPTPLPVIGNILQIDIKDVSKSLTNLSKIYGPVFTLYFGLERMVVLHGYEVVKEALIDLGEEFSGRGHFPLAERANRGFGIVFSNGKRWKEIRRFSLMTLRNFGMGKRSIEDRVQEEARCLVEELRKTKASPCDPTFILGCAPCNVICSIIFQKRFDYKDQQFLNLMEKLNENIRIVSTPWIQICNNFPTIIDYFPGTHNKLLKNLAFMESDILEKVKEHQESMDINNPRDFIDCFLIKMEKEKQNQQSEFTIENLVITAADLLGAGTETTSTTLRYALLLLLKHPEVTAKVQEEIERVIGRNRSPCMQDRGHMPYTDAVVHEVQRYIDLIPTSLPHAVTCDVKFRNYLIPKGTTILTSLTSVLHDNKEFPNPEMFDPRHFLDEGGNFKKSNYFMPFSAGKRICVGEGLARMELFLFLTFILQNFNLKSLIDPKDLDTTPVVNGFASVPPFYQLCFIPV

Question: With N[C@H]1CC[C@H](Nc2ncc3nc(Nc4ccc(F)cc4F)n(C4CCCC4)c3n2)CC1 as the molecule, how does the remaining at 0.5 h, 3 µM [1] read?
Answer: 92%

Question: And the remaining at 0.5 h, 3 µM [2]?
Answer: 100%

Question: What about the remaining at 0.5 h, 3 µM [3] of the same molecule?
Answer: 100%

Question: And the remaining at 0.5 h, 3 µM [4]?
Answer: 100%

Question: What about the solubility thermodynamic [5] of the same molecule?
Answer: 0.792 mg/mL (≈ 1850 µM)

Question: And the IC50 [6]?
Answer: 0.4 µM

Question: And the pIC50 [7]?
Answer: 7.60

Question: And the pIC50 [8]?
Answer: 7.62

Question: And the IC50 [9]?
Answer: 0.35 µM

Question: And the Vd [10]?
Answer: 75 L/kg

Question: And the pIC50 (Rattus norvegicus [11])?
Answer: 5.82

Question: And the inhibition in vivo at 30 mg/kg (Mus musculus [12])?
Answer: 41%

Question: And the inhibition in vivo at 60 mg/kg (Mus musculus [13])?
Answer: 98%

Question: What about the AUC [14] of the same molecule?
Answer: 4.7 µM·h

Question: And the half-life [15]?
Answer: 17 h

Question: And the clearance [16]?
Answer: 4.98 L/h/kg

Question: And the AUC [17]?
Answer: 3.8 µM·h

Question: What about the half-life [18] of the same molecule?
Answer: 10 h

Question: What about the clearance [19] of the same molecule?
Answer: 1.68 L/h/kg

Question: And the half-life [20]?
Answer: 17 h

Question: And the clearance [21]?
Answer: 0.3 L/h/kg

Question: And the Vd [22]?
Answer: 11 L/kg

Question: What about the AUC [23] of the same molecule?
Answer: 7 µM·h

Question: And the half-life [24]?
Answer: 37 h

Question: What about the MRT [25] of the same molecule?
Answer: 40 h

Question: What about the “inhibition (INH)” value (Cytochrome P450 1A2) of the same molecule?
Answer: Not Active

Question: And the “inhibition (INH)” value (Cytochrome P450 2C19)?
Answer: Not Active

Question: And the “inhibition (INH)” value (Cytochrome P450 2D6)?
Answer: Not Active

Question: And the “inhibition (INH)” value (Cytochrome P450 3A4)?
Answer: Not Active

Question: And the metabolised at 0.5 h (CYP2B6)?
Answer: 14%

Question: What about the Drug metabolism (Hepatocyte [26]) of the same molecule?
Answer: Not Active

Question: What about the Drug metabolism (Hepatocyte [27]) of the same molecule?
Answer: Not Active

Question: What about the Drug metabolism (Plasma) of the same molecule?
Answer: Not Active

Question: And the Activity (Salmonella typhimurium)?
Answer: Non-toxic

Question: What about the inhibition at 10 µM (hERG (KCNH2)) of the same molecule?
Answer: 59%

Question: And the Activity (Rattus norvegicus [28])?
Answer: Non-toxic
